We go through four molecules from article PMC5529423, “ATP-dependent modulation of MgtE in Mg^2+ homeostasis” (Nature Communications, 2017).

The target of data set [1] is T1, TtMgtE (full-length MgtE) (Thermus thermophilus, UniProt Q5SMG8).
T1 construct: full-length, expressed in E. coli C41 (DE3), Ni-NTA and gel filtration in detergent; homodimer; tag not described
T1 sequence (Q5SMG8 1-450): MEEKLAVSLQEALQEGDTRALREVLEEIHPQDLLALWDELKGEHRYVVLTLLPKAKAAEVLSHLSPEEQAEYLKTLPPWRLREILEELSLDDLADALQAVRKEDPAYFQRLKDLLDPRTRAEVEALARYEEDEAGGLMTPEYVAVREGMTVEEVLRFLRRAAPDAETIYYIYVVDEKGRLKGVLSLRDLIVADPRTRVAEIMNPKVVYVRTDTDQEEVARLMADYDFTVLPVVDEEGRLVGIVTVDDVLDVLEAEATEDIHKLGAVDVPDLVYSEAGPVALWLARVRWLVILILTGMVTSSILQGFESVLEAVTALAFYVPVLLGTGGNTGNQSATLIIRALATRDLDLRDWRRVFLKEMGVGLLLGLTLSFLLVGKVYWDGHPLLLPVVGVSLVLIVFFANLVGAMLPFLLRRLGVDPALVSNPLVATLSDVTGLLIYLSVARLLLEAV
Put plainly: isothermal titration calorimetry. Format: binding. (In general: In ITC the heat of successive injections is recorded.)

The target in data set [2] is T2, TtMgtE (full-length MgtE) (Thermus thermophilus, UniProt Q5SMG8, R187E).
T2 construct: full-length, expressed in E. coli C41 (DE3), Ni-NTA and gel filtration in detergent; homodimer; tag not described
T2 sequence (Q5SMG8 whole entry R187E): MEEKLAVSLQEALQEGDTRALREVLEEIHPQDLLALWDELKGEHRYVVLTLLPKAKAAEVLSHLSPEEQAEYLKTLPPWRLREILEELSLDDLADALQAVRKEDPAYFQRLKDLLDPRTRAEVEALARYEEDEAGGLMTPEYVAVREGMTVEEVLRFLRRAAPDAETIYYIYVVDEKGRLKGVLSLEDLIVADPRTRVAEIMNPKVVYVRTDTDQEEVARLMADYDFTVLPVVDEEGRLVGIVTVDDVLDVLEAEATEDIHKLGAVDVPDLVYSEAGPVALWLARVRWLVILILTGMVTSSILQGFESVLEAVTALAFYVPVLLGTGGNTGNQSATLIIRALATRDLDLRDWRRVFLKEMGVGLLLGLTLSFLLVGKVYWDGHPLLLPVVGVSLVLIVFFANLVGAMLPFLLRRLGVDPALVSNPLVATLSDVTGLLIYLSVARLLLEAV
Nature of the data set: isothermal titration calorimetry. Format: binding. The note with it: 20 °C, no added Mg2+, NTM detergent, ligand solution pH 6.5; CBS domain site.

Data set [3] concerns the molecule itself. Put plainly: crystal structure; full-length MgtE with ATP; vapor diffusion over 9% PEG 4000, 0.2 M MgCl2, 0.05 M MES pH 6.5; 3.6 Å.
Data set [4] concerns the molecule itself. Put plainly: crystal structure; cytosolic domain (1-275) with ATP; vapor diffusion over 20-22% PEG 400, 0.2 M MgCl2, 0.1 M HEPES pH 7.4; 3.0 Å.

Broadly, the Kd is the equilibrium constant for the complex coming apart. Read a low Kd as tighter binding. With `Nc1ncnc2c1ncn2[C@@H]1O[C@H](COP(=O)(O)OP(=O)(O)O)[C@@H](O)[C@H]1O` [ADP], the Kd in data set [1] is 763 µM.
Molecule `Nc1ncnc2c1ncn2[C@@H]1O[C@H](COP(=O)(O)OP(=O)(O)OP(=O)(O)O)[C@@H](O)[C@H]1O` [ATP] displayed a Kd in data set [1] of 415 µM. The isothermal titration calorimetry entry in data set [2] is reported as “The injection of ATP into the R187E mutant solution still showed the weaker binding to ATP”.

B1: full-length Thermus thermophilus MgtE (natural protein, UniProt Q5SMG8 1-450, looked up)
chain: T1 sequence (Q5SMG8 1-450)
notes: MgtE Mg2+ channel of Thermus thermophilus, full length; crystallised with ATP and Mg2+; That MgtE is a homodimer is said in the introduction, of the earlier full-length structure; also called TtMgtE; wild type MgtE; source: E. coli C41 (DE3), solubilized with DDM, purified (Ni-NTA, Superdex 200 SEC)
Take B1: the binding result in data set [3] was “binds”.

B2: cytosolic domain (1-275) of MgtE (domain or fragment, Thermus thermophilus, UniProt Q5SMG8 1-275, looked up)
chain: MEEKLAVSLQEALQEGDTRALREVLEEIHPQDLLALWDELKGEHRYVVLTLLPKAKAAEVLSHLSPEEQAEYLKTLPPWRLREILEELSLDDLADALQAVRKEDPAYFQRLKDLLDPRTRAEVEALARYEEDEAGGLMTPEYVAVREGMTVEEVLRFLRRAAPDAETIYYIYVVDEKGRLKGVLSLRDLIVADPRTRVAEIMNPKVVYVRTDTDQEEVARLMADYDFTVLPVVDEEGRLVGIVTVDDVLDVLEAEATEDIHKLGAVDVPDLVYSE
notes: MgtE Mg2+ channel of Thermus thermophilus, cytosolic domain (N domain and tandem CBS domains), residues 1-275; crystallised with ATP and Mg2+; also called MgtE cytosolic domain; source: E. coli C41 (DE3), purified
As for B2, the binding result in data set [4] is recorded as “binds”.
